Series [1] deals with Panel NCI-60 (60 carcinoma cell lines). In words: Cytotoxicity against human Panel NCI-60 (60 carcinoma cell lines) assessed as cell growth inhibition. Type of series: functional, cell-based.
Series [2] has as its target Tubulin. The series is described as follows: Binding affinity to tubulin (unknown origin). Type of series: protein-complex assay, Homo sapiens.
The subject of a further series is HeLa. The series is described as follows: Cytotoxicity against human HeLa cells assessed as cell growth inhibition. It counts as functional.
For series [3], the system named is HT-29. In words: Anticancer activity against human HT-29 assessed as reduction in cell viability incubated for 96 hrs by microculture tetrazolium assay. Type of series: functional, cell-based. The following applies: HT-29, 96 h.
In a further series the test system is ASPC1. The series is described as follows: Cytotoxicity against human ASPC1 cells assessed as cell growth inhibition incubated for 72 hrs by CellTiter-Glo assay. It counts as functional. Background: Cellular ATP, detected with luciferase, serves as a proxy for viable cell number.
The next series relates to SK-BR-3. The series is described as follows: Cytotoxicity against human SK-BR-3 cells assessed as cell growth inhibition incubated for 72 hrs by CellTiter-Glo assay. It counts as functional.
Another series relates to H3396. The series is described as follows: Cytotoxicity against human H3396 cells assessed as cell growth inhibition. It counts as functional, cell-based.
The subject of series [4] is HT-29. The series is described as follows: Cytotoxicity against human HT-29 cells assessed as cell growth inhibition. Type of series: functional, cell-based.
The subject of another series is HL-60. The series is described as follows: Cytotoxicity against P-gp negative human HL-60 cells assessed as reduction inc cell viability. Type of series: functional, cell-based.
A further series relates to HCT-116. The series is described as follows: Cytotoxicity against human HCT-116 cells assessed as reduction inc cell viability. It counts as functional, cell-based.
A short description of series [5]: Toxicity in mouse assessed as maximum tolerated dose. The following applies: in vivo.
Series [6] has as its target Tubulin. The series is described as follows: Inhibition of tubulin (unknown origin) polymerization assessed as reduction in microtubule formation preincubated for 15 mins followed by GTP addition and measured for 20 mins by spectrophotometric analysis. It counts as protein-complex assay, Homo sapiens.
The subject of a further series is NCI-H82. In words: Anticancer activity against human NCI-H82 cells assessed as cell growth inhibition. Type of series: functional, cell-based.
Series [7] has as its system NCI-H446. The series is described as follows: Anticancer activity against human NCI-H446 cells assessed as cell growth inhibition. It counts as functional, cell-based.
A further series has as its system SK-MEL-5. In words: Anticancer activity against human SK-MEL-5 cells assessed as growth inhibition. Type of series: functional.
A further series has as its system KM-20L2. In words: Anticancer activity against human KM-20L2 cells assessed as growth inhibition. It counts as functional.
A further series deals with L1210. In words: Cytotoxicity against mouse L1210 cells assessed as cell growth inhibition measured after 24 hrs. The conditions noted are these: L1210, 24 h. Type of series: functional, cell-based.
Series [8] deals with NCI-H446. In words: Anti-tumor activity against human NCI-H446 cells xenografted in SCID mouse assessed as increase in median survival time at 450 microg/kg, iv (Rvb= 42 day). It counts as functional. The following applies: dose 450 µg/kg.
The next series relates to NCI-H460. In words: Anticancer activity against human NCI-H460 cells assessed as growth inhibition. Type of series: functional.
A short description of series [9]: Toxicity in dog assessed as maximum tolerated dose. Further details: species or system Canis lupus familiaris. The conditions noted are these: in vivo.
In the next series the test system is NCI-H69. The series is described as follows: Anticancer activity against human NCI-H69 cells assessed as cell growth inhibition. It counts as functional, cell-based.
For a further series, the system named is leukaemia cell line. The series is described as follows: Cytotoxicity against human leukaemia cell line assessed as cell growth inhibition. It counts as functional.
Series [10] addresses Tubulin. In words: Inhibition of tubulin (unknown origin) polymerization assessed as reduction in microtubule formation measured for 20 mins by spectrophotometric analysis. Type of series: protein-complex assay, Homo sapiens.
The test system of the next series is NCI-H510A. In words: Anticancer activity against human NCI-H510A cells assessed as cell growth inhibition. It counts as functional, cell-based.
For another series, the system named is A498. The series is described as follows: Anticancer activity against human A498 cells assessed as growth inhibition. Type of series: functional.
Series [11] relates to NCI-H446. The series is described as follows: Anti-tumor activity against human NCI-H446 cells xenografted in SCID mouse assessed as log increase in apoptosis at 450 microg/kg, iv measured after 96 hrs. The following applies: dose 450 µg/kg. Type of series: functional.
The subject of the next series is SF-295. The series is described as follows: Anticancer activity against human SF-295 cells assessed as growth inhibition. Type of series: functional.
Another series relates to OVCAR-3. In words: Anticancer activity against human OVCAR-3 cells assessed as growth inhibition. It counts as functional.

Each structure is given as a SMILES string. Starred links: 1 amine or outer side, 2 acyl side, 3 side chain; linkers in the order of their positions; H or OH if unused. Non-standard residues stand in square brackets, D forms with d. Residues, ends and D or L forms follow the SMILES beside them. *: point of attachment. X2 = CO[C@H]([C@@H](C)C(=O)[*:2])[C@@H]1C[C@@H]2C[C@@H]2N1[*:1]; Dolaproine = CO[C@@H]([C@@H]1CCCN1)[C@@H](C)C(=O)O; Dil = CC[C@H](C)[C@H](NC)[C@@H](CC(=O)O)OC; X5 = CCCCCCCCCCN(C)[C@H](C(=O)*)C(C)C; Phe(2-F) = N[C@@H](Cc1ccccc1F)C(=O)O; NMeV = CN[C@H](C(=O)O)C(C)C

In the case of `CC[C@H](C)[C@@H]([C@@H](CC(=O)N1CCC[C@H]1[C@H](OC)[C@@H](C)C(=O)NCCc1ccccn1)OC)N(C)C(=O)[C@@H](NC(=O)[C@H](C(C)C)N(C)C)C(C)C`, the GI50 (commonly the concentration at which growth is held to half of that of the control) in [1] worked out at 0.85 nM. In addition, the IC50 (as a rule, the concentration needed to halve the response being measured) at Tubulin [2] came out at 1.2 nM.

Take `CC[C@H](C)[C@@H]([C@@H](CC(=O)NC[C@H]1O[C@H](C(=O)N[C@@H](Cc2ccccc2)c2nccs2)[C@@H](OC)[C@@H]1OC)OC)N(C)C(=O)[C@@H](NC(=O)[C@H](C(C)C)N(C)C)C(C)C`: the GI50 with HeLa is 0.01 nM.

Consider `CC[C@H](C)[C@H]1[C@H](OC)CC(=O)N2CCC[C@H]2[C@H](OC)[C@@H](C)C(=O)N[C@@H](Cc2ccccc2)c2nc(cs2)C(=O)O[C@H](C)[C@H](N(C)C)C(=O)N[C@@H](C(C)C)C(=O)N1C`, for which the IC50 in the series with HT-29 [3] amounted to 58.5 nM.

As for `CC[C@H](C)[C@@H]([C@@H](CC(=O)N1[C@H]2C[C@H]2C[C@H]1[C@H](OC)[C@@H](C)C(=O)N[C@@H](Cc1ccccc1F)C(=O)O)OC)N(C)C(=O)[C@@H](NC(=O)[C@@H](NC)C(C)C)C(C)C` (H-[NMeV]V[Dil][X2][Phe(2-F)]-OH), the GI50 in the series on ASPC1 turned out to be 1750 nM; with SK-BR-3, 47.7 nM.

`CC[C@H](C)[C@@H]([C@@H](CC(=O)N1CCC[C@H]1[C@H](OC)[C@@H](C)C(=O)N[C@@H](Cc1ccccc1)C(=O)O)OC)N(C)C(=O)[C@@H](NC(=O)[C@@H](NC)C(C)C)C(C)C` (HELM PEPTIDE1{[meV].V.[CC[C@H](C)[C@@H]([C@@H](CC(=O)[*:2])OC)N(C)[*:1]].[CO[C@H]([C@@H](C)C(=O)[*:2])[C@@H]1CCCN1[*:1]].F}$$$$V2.0): the IC50 with H3396 is 105 nM; in the series on HT-29 [4], 10 nM; in the series on HL-60 it was 137 nM; in the series on HCT-116 it was 2880 nM. Also, the MTD (as a rule, the largest dose that counted as tolerated) in series [5] came out at 1 mg/kg.

For `CCCCCCCCCCN(C)[C@H](C(=O)N[C@H](C(=O)N(C)[C@@H]([C@@H](C)CC)[C@@H](CC(=O)N1CCC[C@H]1[C@H](OC)[C@@H](C)C(=O)N[C@@H](Cc1ccccc1)C(=O)O)OC)C(C)C)C(C)C` (X5-V[Dil][Dolaproine]F-OH), in the series with HL-60, the IC50 amounted to 1.8 nM.

Take `CC[C@H](C)[C@@H]([C@@H](CC(=O)N1CCC[C@H]1[C@H](OC)[C@@H](C)C(=O)N[C@@H](Cc1ccccc1)c1nccs1)OC)N(C)C(=O)[C@@H](NC(=O)[C@H](C(C)C)N(C)C)C(C)C` [DOLASTATIN-10]: the IC50 was 3 nM on Tubulin [6]; 0.032 nM in the series on NCI-H82; 0.032 nM in the series on NCI-H446 [7]; 0.9 nM in the series with L1210; 0.032 nM in the series on NCI-H69; 1200 nM at Tubulin [10]. Further, in the series on NCI-H510A, the IC50 worked out at 0.032 nM. Besides, the 50% growth inhibitory concentration (GI50) in the series with SK-MEL-5 was 0.009 nM; with KM-20L2, 0.006 nM; in the series with NCI-H460, 0.004 nM; in series [1], 0.01 nM; in the series on A498, 0.033 nM; in the series with SF-295, 0.01 nM. The GI50 in the series with OVCAR-3 is 0.001 nM. Also, the MST in the series on NCI-H446 [8] was 91 days. Further, the maximum tolerated dose (MTD) came out at 0.02 mg/kg in [9] and 0.036 mg/kg in [5]. Moreover, the ED50 with leukaemia cell line is on record as 4.6 10^-5 ug/ml. For the same molecule, the Activity in the series with NCI-H446 [11] stood at 5.2.

For the origin of these results see ChEMBL document CHEMBL5150014, “Discovery and Development of Dolastatin 10-Derived Antibody Drug Conjugate Anticancer Drugs” (J Nat Prod, 2022).
